Where only a bound is given, the exact number is not on record here.

The assay has as its system kynurenine production in IFN-γ-treated KATO-III cells. Put plainly: Inhibitory activity on kynurenine production (Test Example 1). It counts as cell-based. Particulars: Homo sapiens, IFN-γ treatment, culture for 96 hours, read-out: IC50 value, inhibition of kynurenine production. The protocol:
This assay was performed according to a method modified from the method described in the Journal of Biological Chemistry (J. Biol. Chem.), vol. 263, pp. 2041-2048 (1988). Culture of KATO-III derived from human gastric cancer cells was performed by use of RPMI 1640 (GIBCO, 11875) supplemented with 10 vol % FBS (GIBCO, 10091-148, lot. 665285). 1 μL of a DMSO solution of the test substance was diluted with 199 μL of the culture medium, and the diluted solution was added to wells of a 384 well plate (10 μL/well). Then, IFN-γ (Sigma, 1-3265) was added to the culture medium so that the concentration of IFN-γ was 31.25 ng/mL, and the KATO-III cells were suspended at 50,000 cells/ml, in the culture medium. 40 μL of the suspension was added to each well (2,000 cells/well), and culture of the KATO-III cells was performed at 37° C. under a 5% CO2 atmosphere for 96 hours. The final concentration of DMSO was limited to 0.1 vol % or less so that DMSO itself might not affect the kynurenine concentration measured by this assay. After the culture, 10 μL of a 30 w/v % aqueous trichloroacetic acid solution was added to each well, and incubation was performed at 65° C. for 30 minutes. The plate was centrifuged at 2,500×g for 5 minutes, and then 15 μL of the supernatant in each well was transferred into another 384 well plate. To each of the transferred supernatants, 15 μL of a 2 w/v % solution of p-dimethylaminobenzaldehyde in acetic acid was added, incubation was performed at 65° C. for 20 minutes, and then the absorbance at 480 nm was measured.
[formula] Sample: the absorbance value of the well to which a DMSO solution containing the test substance was added and in which cells were treated with IFN-γ. Blank: the absorbance value of the well to which only DMSO, not the test substance was added and in which cells were treated with IFN-γ. Control: the absorbance value of the well to which only DMSO, not the test substance was added and in which cells were not treated with IFN-γ.
In this assay, expression of IDO in KATO-III cells is induced by IFN-γ treatment and then kynurenine in the culture medium is quantified. It is known that the kynurenine concentration in a culture medium increases in proportion to the enzymatic activity of intracellular IDO (for example, the Journal of Biological Chemistry (J. Biol. Chem.), vol. 263, pp. 2041-2048 (1988)). […] It is known that kynurenine production is inhibited by IDO inhibitors (for example, the Journal of Clinical Investigation (J. Clin. Invest.), vol. 117, No. 5, pp. 1147-1154 […]), and thus it is expected that Compound (I) also has an inhibitory effect on IDO.

For orientation: IC50 means the concentration that inhibits the measured activity by half. Take `CCOCCNS(=O)(=O)Nc1nc2ccccc2nc1OC(c1cccnc1)C(F)(F)F` (centres unmarked) [Compound 207, N-{3-[2,2,2-trifluoro-1-(pyridin-3-yl)ethoxy]quinoxalin-2-yl}-N′-(2-ethoxyethyl)-sulfuric diamide]: the IC50 is below 1 µM.
Turning to `CCCS(=O)(=O)Nc1nc2ccccc2nc1OC(c1ccc(Cl)nc1)C(F)(F)F` (centres unmarked) [Compound 278, N-{3-[1-(6-chloropyridin-3-yl)-2,2,2-trifluoroethoxy]-quinoxalin-2-yl}propane-1-sulfonamide], the IC50 was below 1 µM.
As for `O=S(=O)(Nc1nc2ccccc2nc1OC(c1cccnc1)c1cccnc1)c1ccccc1Cl` [Compound 242, 2-chloro-N-[3-(dipyridin-3-ylmethoxy)quinoxalin-2-yl]-benzenesulfonamide], the figure is below 1 µM; as for `CCn1cncc1C(Oc1nc2ccccc2nc1NS(=O)(=O)c1ccccc1Cl)C(F)(F)F` (centres unmarked) [Compound 108, 2-chloro-N-{3-[2,2,2-trifluoro-1-(1-ethyl-1H-imidazol-5-yl)ethoxy]quinoxalin-2-yl}benzenesulfonamide], below 1 µM.
The result for `CC(Sc1nc2ccccc2nc1NS(=O)(=O)c1ccccc1Cl)c1ccccc1` (centres unmarked) [Compound 224, 2-chloro-N-[3-(1-phenylethylthio)quinoxalin-2-yl]benzenesulfonamide] reads below 1 µM; that for `O=S(=O)(Cc1ccccc1Cl)Nc1nc2ccccc2nc1OC(c1cccnc1)C(F)(F)F` (centres unmarked) [Compound 173, 1-(2-chlorophenyl)-N-{3-[2,2,2-trifluoro-1-(pyridin-3-yl)-ethoxy]quinoxalin-2-yl}methanesulfonamide], below 1 µM; that for `CCCS(=O)(=O)Nc1nc2ccccc2nc1OC(C1CCOCC1)C(F)(F)F` (centres unmarked) [Compound 215, N-{3-[2,2,2-trifluoro-1-(tetrahydro-2H-pyran-4-yl)ethoxy]-quinoxalin-2-yl}propane-1-sulfonamide], below 1 µM.
As for `CCCS(=O)(=O)Nc1nc2ccccc2nc1O[C@H](C1CCOCC1)C(F)(F)F` [Compound 347, (R)—N-{3-[2,2,2-trifluoro-1-(tetrahydro-2H-pyran-4-yl)-ethoxy]quinoxalin-2-yl}propane-1-sulfonamide], the figure is below 1 µM.
Turning to `CCCS(=O)(=O)Nc1nc2ccccc2nc1OC(c1cncs1)C(F)(F)F` (centres unmarked) [Compound 276, N-{3-[2,2,2-trifluoro-1-(thiazol-5-yl)ethoxy]quinoxalin-2-yl}propane-1-sulfonamide], the IC50 is below 1 µM.
As to `O=S(=O)(Nc1nc2ccccc2nc1OC(c1ccccn1)C(F)(F)F)c1ccccc1Cl` (centres unmarked) [Compound 48, 2-chloro-N-{3-[2,2,2-trifluoro-1-(pyridin-2-yl)ethoxy]-quinoxalin-2-yl}benzenesulfonamide], the IC50 is below 1 µM.
For the compound `O=S(=O)(Nc1nc2ccccc2nc1OC(c1cncs1)C(F)(F)F)c1cccc(Cl)c1Cl` (centres unmarked) [Compound 98, 2,3-dichloro-N-{3-[2,2,2-trifluoro-1-(thiazol-5-yl)ethoxy]-quinoxalin-2-yl}benzenesulfonamide], the IC50 was below 1 µM.
The result for `O=S(=O)(Nc1nc2ccccc2nc1OC(c1cccnc1)C(F)(F)F)c1ccccc1Cl` (centres unmarked) [Compound 138, 2-Chloro-N-{3-[2,2,2-trifluoro-1-(pyridin-3-yl)ethoxy]-quinoxalin-2-yl}benzenesulfonamide] reads below 1 µM; that for `CCCNS(=O)(=O)Nc1nc2ccccc2nc1OC(c1cncn1C)C(F)(F)F` (centres unmarked) [Compound 282, N-{3-[2,2,2-trifluoro-1-(1-methyl-1H-imidazol-5-yl)ethoxy]-quinoxalin-2-yl}-N′-propyl-sulfuric diamide], below 1 µM.
Turning to `O=S(=O)(Nc1nc2ccccc2nc1OC(c1ccccc1)C(F)(F)F)c1ccccc1Cl` (centres unmarked) [Compound 44, 2-chloro-N-[3-(2,2,2-trifluoro-1-phenylethoxy)quinoxalin-2-yl]benzenesulfonamide], the IC50 was below 1 µM.
For `O=S(=O)(Nc1nc2ccccc2nc1OC(c1cccnc1)C(F)(F)F)C1CCCCC1` (centres unmarked) [Compound 183, N-{3-[2,2,2-trifluoro-1-(pyridin-3-yl)ethoxy]quinoxalin-2-yl}cyclohexanesulfonamide], the IC50 was below 1 µM.
For `N#Cc1cccc(C(Oc2nc3ccccc3nc2NS(=O)(=O)NC2CC2)C(F)(F)F)c1` (centres unmarked) [Compound 293, N-{3-[1-(3-cyanophenyl)-2,2,2-trifluoroethoxy]quinoxalin-2-yl}-N′-cyclopropyl-sulfuric diamide], the IC50 was below 1 µM.
As for `COCCS(=O)(=O)Nc1nc2ccccc2nc1OC(c1cccnc1)C(F)(F)F` (centres unmarked) [Compound 300, 2-methoxy-N-{3-[2,2,2-trifluoro-1-(pyridin-3-yl)ethoxy]-quinoxalin-2-yl}ethanesulfonamide], the figure is below 1 µM; as for `Cc1noc(C)c1S(=O)(=O)Nc1nc2ccccc2nc1OC(c1cccnc1)C1(F)CCOCC1` (centres unmarked) [Compound 88, 3,5-dimethyl-N-{3-[4-fluorotetrahydropyran-4-yl(pyridin-3-yl)methoxy]quinoxalin-2-yl}isoxazole-4-sulfonamide], below 1 µM.
The result for `Cc1noc(C)c1S(=O)(=O)Nc1nc2ccccc2nc1OC(c1cnc(Cl)s1)C(F)(F)F` (centres unmarked) [Compound 198, N-{3-[1-(2-chlorothiazol-5-yl)-2,2,2-trifluoroethoxy]-quinoxalin-2-yl}-3,5-dimethylisoxazole-4-sulfonamide] reads below 1 µM.
As for `O=S(=O)(CC1CC1)Nc1nc2ccccc2nc1OC(c1ccc(Cl)nc1)C(F)(F)F` (centres unmarked) [Compound 308, 1-cyclopropyl-N-{3-[1-(6-chloropyridin-3-yl)-2,2,2-trifluoroethoxy]quinoxalin-2-yl}methanesulfonamide], the IC50 was below 1 µM.
Consider `O=S(=O)(Nc1nc2ccccc2nc1OCc1ccc2ccccc2c1)c1ccc(Cl)c(Cl)c1` [Compound 30, 3,4-dichloro-N-{3-[(2-naphthyl)methoxy]quinoxalin-2-yl}-benzenesulfonamide], for which the IC50 lay in the range of 1 to 10 µM.
As to `CC(C)S(=O)(=O)Nc1nc2ccccc2nc1OC(c1cccnc1)C(F)(F)F` (centres unmarked) [Compound 168, N-{3-[2,2,2-trifluoro-1-(pyridin-3-yl)ethoxy]quinoxalin-2-yl}propane-2-sulfonamide], the IC50 was below 1 µM.
For `Cc1cccc2nc(OC(c3cccnc3)C(F)(F)F)c(NS(=O)(=O)c3ccccc3Cl)nc12` (centres unmarked) [Compound 265, 2-chloro-N-{8-methyl-3-[2,2,2-trifluoro-1-(pyridin-3-yl)-ethoxy]quinoxalin-2-yl}benzenesulfonamide], the IC50 is below 1 µM.
With `O=S(=O)(Nc1nc2ccccc2nc1OC(c1cccnc1)C(F)(F)F)c1ccc(Cl)s1` (centres unmarked) [Compound 146, 5-chloro-N-{3-[2,2,2-trifluoro-1-(pyridin-3-yl)ethoxy]-quinoxalin-2-yl}thiophene-2-sulfonamide], the IC50 is below 1 µM.
In the case of `COCCCS(=O)(=O)Nc1nc2ccccc2nc1OC(c1cccnc1)C(F)(F)F` (centres unmarked) [Compound 301, 3-methoxy-N-{3-[2,2,2-trifluoro-1-(pyridin-3-yl)ethoxy]-quinoxalin-2-yl}propane-1-sulfonamide], the IC50 was below 1 µM.
As to `O=S(=O)(Nc1nc2ccccc2nc1OCc1ccc2ccccc2c1)c1ccccc1C(F)(F)F` [Compound 21, 2-(trifluoromethyl)-N-{3-[(2-naphthyl)methoxy]quinoxalin-2-yl}benzenesulfonamide], the IC50 is below 1 µM.
As for `O=S(=O)(Nc1nc2ccccc2nc1OC(CCc1cccnc1)C(F)(F)F)c1ccccc1Cl` (centres unmarked) [Compound 172, 2-chloro-N-{3-[1,1,1-trifluoro-4-(pyridin-3-yl)butan-2-yloxy]quinoxalin-2-yl}benzenesulfonamide], the figure is below 1 µM.
As to `CC(C)C(Oc1nc2ccccc2nc1NS(=O)(=O)c1cccc(Cl)c1Cl)c1cccnc1` (centres unmarked) [Compound 34, 2,3-dichloro-N-{3-[2-methyl-1-(pyridin-3-yl)propoxy]-quinoxalin-2-yl}benzenesulfonamide], the IC50 was below 1 µM.
`O=S(=O)(Nc1nc2ccccc2nc1OCc1ccc2ccccc2c1)c1cccc(Cl)c1Cl` [Compound 10, 2,3-dichloro-N-{3-[(2-naphthyl)methoxy]quinoxalin-2-yl}-benzenesulfonamide]: the IC50 is below 1 µM.

The values are drawn from US8673908B2, “Kynurenine production inhibitor” (Kyowa Hakko Kirin Co., Ltd., priority 2008, dated 2014).
